ChEMBL document CHEMBL1201862, “PubChem BioAssay data set” (2004)
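Briefly, cells in 96-well plates were exposed to five compound concentrations for 48 h, and endpoints were estimated by linear interpolation. GI50 is the concentration that inhibits growth by half.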 Calls of active or inactive are those of the source. Rule as the data show it: active = GI50 up to about 1.1 µM and inactive = higher.

What was measured:
Test in all cases: NCI-60 cell line screen, 48 h
A549 = tested on: A549
K562 = tested on: K562
NCI-H522 = tested on: NCI-H522
NCI-H460 = tested on: NCI-H460
OVCAR-5 = tested on: OVCAR-5
SK-OV-3 = tested on: SK-OV-3
MCF7 = tested on: MCF7
BT-549 = tested on: BT-549
SK-MEL-5 = tested on: SK-MEL-5
MDA-MB-231 = tested on: MDA-MB-231
SF-539 = tested on: SF-539
DU-145 = tested on: DU-145
T47D = tested on: T47D
KM12 = tested on: KM12
SF-268 = tested on: SF-268
786-0 = tested on: 786-0
NCI-H226 = tested on: NCI-H226
SNB-75 = tested on: SNB-75
A498 = tested on: A498

Measured: GI50

O=C1/C(=C/c2ccco2)N=C(c2ccccc2)N1c1ccc(S(=O)(=O)Nc2nccs2)cc1
inactive: A549 89.7 µM | K562 > 100 µM | NCI-H522 30.9 µM | NCI-H460 45.9 µM | OVCAR-5 > 100 µM | SK-OV-3 > 100 µM | MCF7 61.4 µM | BT-549 > 100 µM | SK-MEL-5 87.9 µM | MDA-MB-231 > 100 µM | SF-539 > 100 µM | DU-145 > 100 µM | T47D 80.4 µM | KM12 > 100 µM | SF-268 > 100 µM | 786-0 > 100 µM | NCI-H226 > 100 µM | SNB-75 > 100 µM

CN1C(=O)c2ccccc2C(O)(c2ccccc2)C1(O)c1ccccc1 (configuration not stated)
inactive: A549 69.5 µM | K562 > 100 µM | NCI-H522 > 100 µM | NCI-H460 19.2 µM | OVCAR-5 > 100 µM | SK-OV-3 52.4 µM | BT-549 81.1 µM | SK-MEL-5 74.6 µM | MDA-MB-231 > 100 µM | SF-539 > 100 µM | A498 > 100 µM | T47D 61.2 µM | KM12 > 100 µM | SF-268 55.5 µM | 786-0 > 100 µM | NCI-H226 > 100 µM | SNB-75 91 µM

CC(C)Oc1cccc(N2C(NCCc3c[nH]c4ccccc34)=Nc3ccncc3S2(=O)=O)c1
inactive: A549 40.9 µM | K562 3.82 µM | NCI-H522 7.01 µM | NCI-H460 6.53 µM | OVCAR-5 > 100 µM | SK-OV-3 > 100 µM | MCF7 4.73 µM | BT-549 61.1 µM | SK-MEL-5 9.59 µM | SF-539 33.7 µM | A498 9.31 µM | DU-145 22.5 µM | T47D 7.21 µM | KM12 30.5 µM | SF-268 15.7 µM | 786-0 2.09 µM | NCI-H226 > 100 µM | SNB-75 8.05 µM

Cc1c(/C=N\NC(=S)N2CCN(C(=S)N/N=C\c3c(C)n(C)n(-c4ccccc4)c3=O)CC2)c(=O)n(-c2ccccc2)n1C
inactive: A549 47.9 µM | NCI-H522 60.7 µM | NCI-H460 42 µM | OVCAR-5 > 100 µM | SK-OV-3 > 100 µM | BT-549 44 µM | SK-MEL-5 > 100 µM | MDA-MB-231 24 µM | SF-539 > 100 µM | A498 65.3 µM | DU-145 56 µM | T47D 36.1 µM | KM12 69.7 µM | SF-268 > 100 µM | 786-0 33.7 µM | NCI-H226 > 100 µM | SNB-75 21.8 µM

CC1=CC(C)C(O)C(C)/C=C\C(O)C/C=C(/C)C(=O)CC(O)C(C)\C=C/C=C\C=C/C(=O)NC2=C(O)C(=O)c3c(cc(C)c(O)c3C1=O)C2=O (configuration not stated)
inactive: A549 > 100 µM | NCI-H522 > 100 µM | NCI-H460 > 100 µM | OVCAR-5 > 100 µM | MCF7 25.8 µM | BT-549 > 100 µM | SK-MEL-5 91 µM | MDA-MB-231 > 100 µM | SF-539 62.1 µM | DU-145 76.6 µM | T47D > 100 µM | KM12 56.2 µM | SF-268 94.4 µM | 786-0 > 100 µM | SNB-75 25 µM

O=C1CSCC(=O)Nc2ccccc2N1
inactive: A549 > 100 µM | K562 > 100 µM | NCI-H522 > 100 µM | NCI-H460 > 100 µM | OVCAR-5 > 100 µM | SK-OV-3 > 100 µM | BT-549 > 100 µM | SK-MEL-5 > 100 µM | MDA-MB-231 > 100 µM | SF-539 > 100 µM | A498 > 100 µM | DU-145 > 100 µM | T47D > 100 µM | KM12 > 100 µM | SF-268 > 100 µM | 786-0 > 100 µM | NCI-H226 > 100 µM

CCNC1=C(NC(=O)CC)C(=O)c2ccccc2C1=O
inactive: A549 > 100 µM | K562 > 100 µM | NCI-H522 46.1 µM | NCI-H460 > 100 µM | OVCAR-5 > 100 µM | SK-OV-3 > 100 µM | MCF7 > 100 µM | BT-549 > 100 µM | SK-MEL-5 54.1 µM | MDA-MB-231 > 100 µM | SF-539 > 100 µM | DU-145 > 100 µM | T47D > 100 µM | KM12 > 100 µM | SF-268 > 100 µM | 786-0 > 100 µM | NCI-H226 > 100 µM | SNB-75 > 100 µM

COC(=O)[C@@]12CSC[C@]1(C(=O)OC)N[C@@H](c1ccccc1O)C2
inactive: A549 > 100 µM | K562 > 100 µM | NCI-H522 > 100 µM | NCI-H460 > 100 µM | OVCAR-5 > 100 µM | SK-OV-3 > 100 µM | MCF7 > 100 µM | BT-549 > 100 µM | SK-MEL-5 > 100 µM | SF-539 > 100 µM | A498 > 100 µM | DU-145 > 100 µM | T47D > 100 µM | KM12 > 100 µM | SF-268 > 100 µM | 786-0 > 100 µM | NCI-H226 > 100 µM | SNB-75 > 100 µM

Cc1ccnc(NC(NC(=O)c2ccccc2)(C(F)(F)F)C(F)(F)F)c1
inactive: A549 > 100 µM | K562 > 100 µM | NCI-H522 > 100 µM | OVCAR-5 > 100 µM | SK-OV-3 > 100 µM | MCF7 > 100 µM | BT-549 > 100 µM | SK-MEL-5 > 100 µM | MDA-MB-231 > 100 µM | SF-539 > 100 µM | DU-145 > 100 µM | T47D > 100 µM | KM12 > 100 µM | SF-268 > 100 µM | 786-0 > 100 µM | NCI-H226 > 100 µM | SNB-75 > 100 µM

Cc1ccccc1N/N=C1\C(=O)Nc2ccccc21
inactive: A549 > 100 µM | K562 > 100 µM | NCI-H522 96.8 µM | NCI-H460 > 100 µM | OVCAR-5 > 100 µM | SK-OV-3 > 100 µM | MCF7 > 100 µM | BT-549 > 100 µM | SK-MEL-5 > 100 µM | MDA-MB-231 > 100 µM | DU-145 > 100 µM | T47D > 100 µM | KM12 > 100 µM | SF-268 > 100 µM | 786-0 > 100 µM | NCI-H226 41.7 µM | SNB-75 > 100 µM

O=[N+]([O-])c1cc(/N=N/c2c(O)ccc3cc(S(=O)(=O)O)ccc23)c(O)c([N+](=O)[O-])c1
inactive: A549 > 100 µM | K562 > 100 µM | NCI-H522 > 100 µM | OVCAR-5 > 100 µM | SK-OV-3 > 100 µM | BT-549 > 100 µM | SK-MEL-5 > 100 µM | MDA-MB-231 > 100 µM | DU-145 > 100 µM | T47D > 100 µM | KM12 31.9 µM | SF-268 > 100 µM | 786-0 > 100 µM | NCI-H226 47.9 µM | SNB-75 > 100 µM
